Assay results reported in patent publication US7547513B2, “Mutants of deoxycytidine kinase having extended enzymatic activity” (priority 2001, dated 2009).
In brackets after ≈: the same amount, converted by molar mass.

How the values were obtained:
[1] = tested on: Escherichia coli β7334 Δdeo tdk cdd::Tn10 pSUTrc (dck allele: none); format: cell-based; details: strain β7334, dck allele none; 18 h 37° C., MS medium + IPTG
Experimental: (§1) The culture was then diluted 100 times in the same medium supplemented with IPTG and distributed on 96-well microplates in a final volume of 100 μl in a series of dilutions from to 2 to 2 nucleotide analogues. Each analogue was tested twice. After incubation for 18 hours at 37° C. with stirring, the MIC was determined as corresponding to the lowest analogue concentration for which no turbidity was detectable.
(§2) The toxicity of nucleoside analogues, deviating either by the sugar or by the base, was evaluated in strains of genotype Δdeo tdk cdd expressing on a plasmid the different dckH alleles, wild-type allele, D133E, R104Q and double mutant.
(§3) The minimum inhibitory concentrations, expressed in microM, were determined as indicated in the section Materials and Methods.

[2] = tested on: Escherichia coli β7338 Δdeo tdk cdd::Tn10 pSUDCK4 (dck:D133E-R104Q); format: cell-based; details: strain β7338, dck allele D133E R104Q; 18 h 37° C., MS medium + IPTG
Experimental: as §1, §2, §3

[3] = tested on: Escherichia coli β7339 Δdeo tdk cdd::Tn10 (dckH none, amkG wt); assay: microbe, parasite or virus in culture; format: cell-based; details: strain β7339, dckH none, amkG wt
Experimental: as §1
(§4) We jointly expressed, within the genetic context Δdeo tdk cdd each of the four alleles of dckH with each of the two wt and T39A alleles of amkG, and tested the toxicity of the different nucleoside analogues already tested previously (Table 4 below).
as §3

[4] = tested on: Escherichia coli β7340 Δdeo tdk cdd::Tn10 (dckH wt, amkG wt); assay: microbe, parasite or virus in culture; format: cell-based; details: strain β7340, dckH wt, amkG wt
Experimental: as §1, §4, §3

[5] = tested on: Escherichia coli β7341 Δdeo tdk cdd::Tn10 (dckH D133E, amkG wt); assay: microbe, parasite or virus in culture; format: cell-based; details: strain β7341, dckH D133E, amkG wt
Experimental: as §1, §4, §3

[6] = tested on: Escherichia coli β7342 Δdeo tdk cdd::Tn10 (dckH R104Q, amkG wt); assay: microbe, parasite or virus in culture; format: cell-based; details: strain β7342, dckH R104Q, amkG wt
Experimental: as §1, §4, §3

[7] = tested on: Escherichia coli β7343 Δdeo tdk cdd::Tn10 (dckH D133E R104Q, amkG wt); assay: microbe, parasite or virus in culture; format: cell-based; details: strain β7343, dckH D133E R104Q, amkG wt
Experimental: as §1, §4, §3

[8] = tested on: Escherichia coli β7344 Δdeo tdk cdd::Tn10 (dckH none, amkG T39A); assay: microbe, parasite or virus in culture; format: cell-based; details: strain β7344, dckH none, amkG T39A
Experimental: as §1, §4, §3

[9] = tested on: Escherichia coli β7345 Δdeo tdk cdd::Tn10 (dckH wt, amkG T39A); assay: microbe, parasite or virus in culture; format: cell-based; details: strain β7345, dckH wt, amkG T39A
Experimental: as §1, §4, §3

[10] = tested on: Escherichia coli β7346 Δdeo tdk cdd::Tn10 (dckH D133E, amkG T39A); assay: microbe, parasite or virus in culture; format: cell-based; details: strain β7346, dckH D133E, amkG T39A
Experimental: as §1, §4, §3

[11] = tested on: Escherichia coli β7347 Δdeo tdk cdd::Tn10 (dckH R104Q, amkG T39A); assay: microbe, parasite or virus in culture; format: cell-based; details: strain β7347, dckH R104Q, amkG T39A
Experimental: as §1, §4, §3

[12] = tested on: Escherichia coli β7348 Δdeo tdk cdd::Tn10 (dckH D133E R104Q, amkG T39A); assay: microbe, parasite or virus in culture; format: cell-based; details: strain β7348, dckH D133E R104Q, amkG T39A
Experimental: as §1, §4, §3

[13] = tested on: Escherichia coli strains of genotype Δdeo tdk cdd expressing the different dckH alleles; assay: MIC toxicity in strains Δdeo tdk cdd expressing any dckH allele; format: cell-based; details: whatever the DCK allele
Experimental: as §1, §2

[14] = tested on: Escherichia coli β7335 Δdeo tdk cdd::Tn10 pSUDCK1 (dck wt); format: cell-based; details: for minimum inhibitory concentration (MIC): strain β7335, dck allele wt, 18 h 37° C., MS medium + IPTG
Experimental: (§5) The culture was then diluted 100 times in the same medium supplemented with IPTG and distributed on 96-well microplates in a final volume of 100 μl in a series of dilutions from to 2 to 2 nucleotide analogues. Each analogue was tested twice.
as §2, §3

[15] = tested on: Escherichia coli β7336 Δdeo tdk cdd::Tn10 pSUDCK2 (dck:D133E); format: cell-based; details: strain β7336, dck allele D133E; 18 h 37° C., MS medium + IPTG
Experimental: as §5, §2, §3

[16] = tested on: Escherichia coli β7337 Δdeo tdk cdd::Tn10 pSUDCK3 (dck:R104Q); format: cell-based; details: for minimum inhibitory concentration (MIC): strain β7337, dck allele R104Q, 18 h 37° C., MS medium + IPTG
Experimental: as §5, §2, §3

[17] = tested on: bacteria of genotype Δdeo tdk p::dckH+ (β7134 cells); assay: Selection of the DCK mutants in vivo (mutagenesis of dck gene by promutagenic nucleosides); format: cell-based, Escherichia coli
Experimental: Selection of the DCK mutants in vivo: a 12-hour culture of the β7134 cells in MS medium supplemented with 50 mg/l of carbenicillin was diluted 100 times in the same medium and cultured with aeration until turbidity of 0.100 (600 nm) was reached. The culture was then diluted 25 times in the same medium with or without IPTG and supplemented with variable concentrations (5 to 30 μM) of the promutagenic nucleoside analogues disoG and disoA then cultured with aeration for 18 hours. The cells were rinsed then plated on MH dishes supplemented with trimethoprim, thymidine and IPTG. Colonies appeared after incubation for 36 hours at 37° C. No colony was obtained in the absence of nucleoside analogue.
We took advantage of the conditional mutating property of DCK in the presence of promutagenic nucleoside analogues in order to subject its own dck gene to an episode of mutagenesis in vivo. Thus, bacteria of genotype Δdeo tdk p::dckH+ were exposed either to 2′-deoxy-iso-adenosine (disoA) or to 2′ deoxy-iso-guanosine (disoG), then incubated on solid rich medium in the presence of trimethoprim and thymidine. Colonies appeared following the administration of the two compounds at a frequency of the order of 10^−8. No colony survived in the absence of promutagenic nucleoside.
These alleles are designated dckH*. A plasmid combining the two mutations in the same allele, dckH**, was constructed and introduced into the strain β7117 of genotype Δdeo tdk. This allowed the complementation of the tdk mutation, thus also expressing a thymidine kinase activity. The different alleles selected are itemized in Table 2 below.

[18] = sequenced mutant plasmids obtained independently

Structure (SMILES)	minimum inhibitory concentration (MIC) [1]	minimum inhibitory concentration (MIC) [2]	minimum inhibitory concentration (MIC) [3]	minimum inhibitory concentration (MIC) [4]	minimum inhibitory concentration (MIC) [5]	minimum inhibitory concentration (MIC) [6]	minimum inhibitory concentration (MIC) [7]	minimum inhibitory concentration (MIC) [8]	minimum inhibitory concentration (MIC) [9]	minimum inhibitory concentration (MIC) [10]	minimum inhibitory concentration (MIC) [11]	minimum inhibitory concentration (MIC) [12]	minimum inhibitory concentration (MIC) [15] [µM]	minimum inhibitory concentration (MIC) [16] [µM]	minimum inhibitory concentration (MIC) [14] [µM]	other results
Nc1ncn([C@H]2C[C@H](O)[C@@H](CO)O2)c(=O)n1 [5-aza-dC, 5-aza-2′-deoxycitidine]	> (no toxicity could be detected at the highest analogue concentration, 1.28 mM)	1.25 µM	> (no toxicity could be detected at the highest analogue concentration, 1280 microM)	≦1.25 microM	≦1.25 microM	≦1.25 microM	≦1.25 microM	> (no toxicity could be detected at the highest analogue concentration, 1280 microM)	≦1.25 microM	≦1.25 microM	≦1.25 microM	≦1.25 microM				MIC [13]: < 1.25 µM
Cc1cn([C@H]2C[C@H](N=[N+]=[N-])[C@@H](CO)O2)c(=O)[nH]c1=O [AZT, 3′-azido-3′dexoythymidine]	> (no toxicity could be detected at the highest analogue concentration, 1.28 mM)	1280 µM	> (no toxicity could be detected at the highest analogue concentration, 1280 microM)	> (no toxicity could be detected at the highest analogue concentration, 1280 microM)	> (no toxicity could be detected at the highest analogue concentration, 1280 microM)	> (no toxicity could be detected at the highest analogue concentration, 1280 microM)	> (no toxicity could be detected at the highest analogue concentration, 1280 microM)	> (no toxicity could be detected at the highest analogue concentration, 1280 microM)	> (no toxicity could be detected at the highest analogue concentration, 1280 microM)		> (no toxicity could be detected at the highest analogue concentration, 1280 microM)	> (no toxicity could be detected at the highest analogue concentration, 1280 microM)	640	640		substrate of DCK wt (from toxicity tests of Table 3) ([14]; DCK wt): not a substrate
NNc1ccn([C@H]2C[C@H](O)[C@@H](CO)O2)c(=O)n1 [amino-dC, N4-amino-2′-deoxycitidine]	> (no toxicity could be detected at the highest analogue concentration, 1.28 mM)	20 µM	> (no toxicity could be detected at the highest analogue concentration, 1280 microM)	80 µM (≈ 19.4 µg/mL)	> (no toxicity could be detected at the highest analogue concentration, 1280 microM)	≦1.25 microM	80 µM (≈ 19.4 µg/mL)	> (no toxicity could be detected at the highest analogue concentration, 1280 microM)	> (no toxicity could be detected at the highest analogue concentration, 1280 microM)	640 µM (≈ 155 µg/mL)	5 µM (≈ 1.21 µg/mL)	320 µM (≈ 77.5 µg/mL)	20	2.5		
Nc1ccn([C@@H]2O[C@H](CO)[C@@H](O)[C@@H]2O)c(=O)n1 [araC, arabinocytidine]	> (no toxicity could be detected at the highest analogue concentration, 1.28 mM)	320 µM											20	20	160	
Nc1ncnc2c1ncn2[C@H]1CC[C@@H](CO)O1 [ddA]	80 µM	80 µM											80	80	80	
O=c1[nH]cnc2c1ncn2[C@H]1CC[C@@H](CO)O1 [ddI]	80 µM	40 µM											40	20	40	
Nc1ncc2ncn([C@H]3C[C@H](O)[C@@H](CO)O3)c2n1 [disoA, 2-amino-9-(2′-deoxy-β-D-ribofuranosyl)purine]	> (no toxicity could be detected at the highest analogue concentration, 1.28 mM)	> (no toxicity could be detected at the highest analogue concentration, 1.28 mM)	> (no toxicity could be detected at the highest analogue concentration, 1280 microM)	> (no toxicity could be detected at the highest analogue concentration, 1280 microM)	> (no toxicity could be detected at the highest analogue concentration, 1280 microM)	> (no toxicity could be detected at the highest analogue concentration, 1280 microM)	1280 µM (≈ 322 µg/mL)	> (no toxicity could be detected at the highest analogue concentration, 1280 microM)	> (no toxicity could be detected at the highest analogue concentration, 1280 microM)	10 µM (≈ 2.51 µg/mL)	> (no toxicity could be detected at the highest analogue concentration, 1280 microM)	> (no toxicity could be detected at the highest analogue concentration, 1280 microM)	10			effect of the mutation on toxicity ([16]; mutation R104Q): no effect; frequency of colonies on solid rich medium with trimethoprim and thymidine after exposure ([17]; no colony in the absence of promutagenic nucleoside): ~10^−8; Frequency of mutation detected C → A, codon 133 GAC, Asp → Glu [17, 18]: 1/3; Frequency of mutation detected C → G, codon 133 GAC, Asp → Glu [17, 18]: 1/3; Frequency of mutation detected G → A, codon 133 CGA, Arg → Glu [17, 18]: 1/3
